The values below come from patent US20140148446A1, “COMPOUNDS THAT ENABLE ALTERNATIVE MITOCHONDRIAL ELECTRON TRANSFER” (University of North Texas Health Science Center, priority 2010, published 2014).

In experiment [1] the test system is HT-22 cells. Description: Protection against ROS production induced by glutamate in HT-22 cells. It counts as cell-based. The settings on record: for Potency and efficacy of the protective action on reactive oxygen species production (FIG. 11): compared with methylene blue.
The subject of experiment [2] is HT-22 cells. Nature of the experiment: Protection against mitochondrial membrane potential collapse induced by glutamate in HT-22 cells. It counts as cell-based. The settings on record: for Potency and efficacy of the protective action on mitochondrial membrane potential collapse (FIG. 12): compared with methylene blue.
The test system of experiment [3] is HT-22 cells. Nature of the experiment: Protection against cell death (cell viability) induced by glutamate in HT-22 cells. In kind it is cell-based. The conditions noted are these: for Potency and efficacy of the protective action on cell viability (FIG. 10): glutamate toxicity, compared with methylene blue.
Description: HT-22 cells (gift from Dr. David Schubert, Salk Institute, San Diego, Calif.) were plated at 4,000 cells per well in 96 well plates and cultured over night. […] At the end of the 24 hours, the medium was removed and the plates were rinsed with PBS and incubated with 10 μM calcein-AM (Invitrogen, Carlsbad, Calif.) in PBS for 20 minutes. […] Cell culture wells treated with bleach before rinsing were used as blank.
The subject of experiment [4] is mitochondrial complex I-III. In kind it is biochemical, rat. The conditions noted are these: for Inhibition of complex I-III activity: inhibitor alone. The protocol:
(§1) Fresh rat heart was removed and placed in ice-cold mitochondrial isolation buffer containing 210 mM mannitol, 70 mM sucrose, 5 mM HEPES, and 1 mM EDTA, pH 7. The heart was homogenized immediately, and the mitochondrial fraction was isolated by differential centrifugation as described previously (Trounce et al., 1996). Mitochondria were stored at −80° C. until subsequent analysis.
(§2) All mitochondrial activity assays were performed according to previous publications with minimal modifications for complex I (Lenaz et al., 2004), complex I-III, complex II, complex III, and II-III (Trounce et al., 1996). […] Complex I activity was monitored by adding NADH to the mix with or without rotenone/antimycin A. The final data were normalized to blank values at time zero. The reaction was monitored in a kinetic spectrophotometer at 340 nm. Complex I activity was measured in arbitrary units and normalized to control levels for statistical analysis. Isolated mitochondria equivalent to 40-200 μg mitochondrial protein was used for each assay, except for assays with inhibitors, when larger amount of mitochondria (3 to 5 folds) were used to ensure that inhibition was distinguishable. Final data were normalized to control levels. For complex I-III activity, the reaction was initiated with the addition of NADH, cyt c was used as final substrate and its reduction was monitored at 550 nm. For assay of complex II-III activity, succinate was added instead of NADH, and the electron transfer to cyt c was performed according to previous publications (Atamna et al., 2008). To test whether the electrons from the reduced form of MB (MBH2) can be transferred to cyt c in mitochondrial lysate, we added 10 μM 2,7-dichlorofluorescin (DCFH, Invitrogen, Carlsbad, Calif.) to the reaction system. Free radicals convert non-fluorescent DCFH to highly fluorescent DCF (Ex, 488 nm, and Em, 530 nm). In the presence of cyt c, which accepts electrons from MBH2, conversion of DCFH to DCF is decreased.

A further experiment relates to mitochondrial complex I. Description: Mitochondrial complex I activity assay (NADH dehydrogenase). In kind it is biochemical, rat. The protocol: as §1, §2
In experiment [5] the test system is mitochondrial complex II-III. Nature of the experiment: Mitochondrial complex II-III activity in extracted mitochondria. It counts as biochemical, rat. The settings on record: inhibitor alone. The procedure:
as §1
All mitochondrial activity assays were performed according to previous publications with minimal modifications for complex I (Lenaz et al., 2004), complex I-III, complex II, complex III, and II-III (Trounce et al., 1996). […] Complex I activity was monitored by adding NADH to the mix with or without rotenone/antimycin A. The final data were normalized to blank values at time zero. The reaction was monitored in a kinetic spectrophotometer at 340 nm. Complex I activity was measured in arbitrary units and normalized to control levels for statistical analysis. Isolated mitochondria equivalent to 40-200 μg mitochondrial protein was used for each assay, except for assays with inhibitors, when larger amount of mitochondria (3 to 5 folds) were used to ensure that inhibition was distinguishable. Final data were normalized to control levels. For complex I-III activity, the reaction was initiated with the addition of NADH, cyt c was used as final substrate and its reduction was monitored at 550 nm. […]

Where [6] appears, read: Mus musculus, glutamate, HT-22 cells, read-out: Protection against cell death (EC50).
The mark [7] stands for this setting: glutamate, HT-22 cells, read-out: Protection against cell death (EC50).

As usually defined, the EC50 is the concentration that produces a half-maximal response. Consider `Clc1ccc2c(c1)Nc1ccccc1S2` [2-chlorophenothiazine], for which the EC50 with HT-22 cells [1] (Mus musculus) was found to be 84.1 nM; in the experiment on HT-22 cells [2] (Mus musculus), 45.1 nM; with HT-22 cells [3] (setting [6]) it was 4.57 nM.

For the compound `C=C(C)[C@H]1Cc2c(ccc3c2O[C@@H]2COc4cc(OC)c(OC)cc4[C@@H]2C3=O)O1` [rotenone], in experiment [4], the “Inhibition of complex I-III activity” value was 90%. The “Inhibition of complex I activity” value in the experiment on mitochondrial complex I (CoQ1 as substrate) is on record as “above 95%”; with mitochondrial complex I (MB as substrate, maximum rotenone concentrations), 26.7%.

Consider `CN(C)CCCN1c2ccccc2CCc2ccccc21` [impramine], for which the EC50 was 84600 nM with HT-22 cells [1] (Mus musculus), 29100 nM in the experiment with HT-22 cells [2] (Mus musculus) and 51900 nM in the experiment with HT-22 cells [3] (setting [6]). Further, the “Potency and efficacy of the protective action on reactive oxygen species production (FIG. 11)” value (“Potency and efficacy … (FIG. 11)” below) in the experiment on HT-22 cells [1] was “significantly decrease the potency and efficacy”. In addition, the “Potency and efficacy of the protective action on mitochondrial membrane potential collapse (FIG. 12)” value (“Potency and efficacy … (FIG. 12)” below) in the experiment on HT-22 cells [2] is “significantly decrease the potency and efficacy”. Besides, the “Potency and efficacy of the protective action on cell viability (FIG. 10)” value (shortened to “Potency and efficacy … (FIG. 10)”) in the experiment with HT-22 cells [3] (HT-22 cells) was “significantly decreases the potency and efficacy”.

Regarding `C1=Cc2ccccc2Nc2ccccc21` [Iminostilbene], the EC50 in the experiment on HT-22 cells [1] (Mus musculus) worked out at 484 nM; in the experiment with HT-22 cells [2] (Mus musculus), 61.7 nM; in the experiment with HT-22 cells [3] (setting [6]), 189 nM.

In the case of `CC(=O)N1c2ccc(N(C)C)cc2Sc2cc(N(C)C)ccc21` [Acetyl-MB, acetyl-methylene blue], the “Ability to enhance electron transfer between complex I and III” value in experiment [4] (redox center disabled by N-acetylation) was “completely lost its ability to enhance electron transfer”.

For `c1ccc2c(c1)Nc1ccccc1S2` [phenothiazine], the EC50 with HT-22 cells [1] (Mus musculus) was 57.2 nM; with HT-22 cells [2] (Mus musculus) it was 21.2 nM; in the experiment on HT-22 cells [3] (Mus musculus, HT-22, read-out: Protection against cell death (EC50)), 19 nM.

Consider `CC(CN1c2ccccc2Sc2ccccc21)N(C)C` (stereo not drawn) [promethazine], for which the EC50 with HT-22 cells [1] (Mus musculus) was determined as 9690 nM; in the experiment with HT-22 cells [2] (Mus musculus), 214 nM; in the experiment with HT-22 cells [3] (setting [6]) it was 2060 nM. Also, the “Potency and efficacy … (FIG. 11)” value with HT-22 cells [1] was “significantly decrease the potency and efficacy”. In the experiment with HT-22 cells [2], the “Potency and efficacy … (FIG. 12)” value is “significantly decrease the potency and efficacy”. Moreover, the “Potency and efficacy … (FIG. 10)” value in the experiment on HT-22 cells [3] (HT-22 cells) is “significantly decreases the potency and efficacy”.

For `Cc1cc2nc3ccc(N(C)C)cc3[s+]c2cc1N` [toluidine blue], the concentration giving a half-maximal response (EC50) amounted to 0.106 nM with HT-22 cells [1], 1.54 nM with HT-22 cells [2] and 1.75 nM with HT-22 cells [3] (setting [7]).

Take antimycin A: the “Inhibition of complex I-III activity” value in experiment [4] was 70%. Also, the “Inhibition of complex II-III activity” value in experiment [5] is 80%.

As for `Cc1cc2nc3ccc(N(C)C)cc3nc2cc1N.Cl` [neutral red], in the experiment with HT-22 cells [1], it took 15800 nM to reach a half-maximal effect (EC50); the “Potency and efficacy … (FIG. 11)” value is “significantly decrease the potency and efficacy”. For the same compound, in the experiment on HT-22 cells [2], the EC50 stood at 8960 nM; the “Potency and efficacy … (FIG. 12)” value is “significantly decrease the potency and efficacy”. Moreover, the “Potency and efficacy … (FIG. 10)” value in the experiment on HT-22 cells [3] (HT-22 cells) is “significantly decrease the potency and efficacy”. Moreover, the EC50 in the experiment with HT-22 cells [3] (setting [7]) was 5840 nM.

As to `CN(C)CCCN1c2ccccc2Sc2ccc(Cl)cc21` [chlorpromazine], the EC50 in the experiment on HT-22 cells [1] (Mus musculus) turned out to be 2150 nM; with HT-22 cells [2] (Mus musculus) it was 3270 nM; with HT-22 cells [3] (setting [6]) it was 2190 nM. In addition, the “Potency and efficacy … (FIG. 11)” value in the experiment with HT-22 cells [1] was “significantly decrease the potency and efficacy”. For the same compound, the “Potency and efficacy … (FIG. 12)” value in the experiment on HT-22 cells [2] was “significantly decrease the potency and efficacy”. Besides, the “Potency and efficacy … (FIG. 10)” value in the experiment on HT-22 cells [3] (HT-22 cells) was “significantly decreases the potency and efficacy”.
